From US11590181B2, “Serpin production” (SOCIETE DES PRODUITS NESTLE S.A., priority 2017, dated 2023)
Where no end group is shown, it is not given here.

Key:
[1] = system: serpin gene in B. longum NCC 2705; assay: Sugar induction of serpin gene transcription in Biolector culture (qRT-PCR); assay type: cell-based; settings: 180 min sugar induction at 0.1%, relative to growth in only MRSc (FIG. 1)
Description: FIG. 1—Relative transcription level of serpin gene in B. longum NCC 2705 after 180 min sugar induction at a concentration of 0.1%. The bars indicate the relative amounts of serpin mRNAs for the specific samples comparing to that of growth in only MRSc. Black bars represent significant induction. The standard deviation was obtained from at least 2 different experiments (95% confidence interval).
BL NCC 2705 (B. longum strain CNCM I-2618) was grown in Biolector (growth conditions—anaerobic, 37° C., MRS+5 mM L-cysteine (MRSc).
48-well microtiter plate with pH sensor and dissolved oxygen (DO) sensor were used to culture the strains in Biolector (m2p-labs Aachen, Germany). It was continuously shaken to prevent bacteria aggregation and measurements were performed every 15 min. Plates were sealed with a gas permeable film and an anaerobe-chamber provides well-defined anaerobic gassing conditions. Fermentation parameters like biomass, pH and dissolved oxygen (DO) were monitored online throughout the entire growth using the BioLection HMI software. Growth parameters were:
The following carbohydrates were added to the cultures individually:
B. longum NCC 2705 was then further cultivated in the same conditions for 180 min, after which samples (500 μl) were collected and serpin mRNA levels measured. Every fermentation was performed at least in duplicate.
Total RNA isolation—500 μl of bacterial cultures were suspended in 1 ml of RNA protect bacteria reagent (Qiagen, Germany) and briefly centrifuged 10 min at 5000 g to harvest cells for total RNA extraction.
Total RNA was extracted using the RNeasy total RNA Mini kit (Qiagen, Germany, Ca. No. 74101) with protease K (Qiagen, Germany, Ca. No. 19131) and further treated using RNase-free DNase set (Qiagen, Germany, Ca. No. 79254). Total RNA was then eluted in 40 μl water. […]
mRNA fold expression analysis method—The Pfaffl method was used to calculate relative transcription changes (Pfaffl, 2012, Martin Filion, Hg., Quantitative real-time PCR in Applied Microbiology, 53-62) for which the equation is shown in Equation 1: […]

BL NCC 2705 serpin = assay: Lactose dose response in 10 L fermenter, serpin mRNA fold induction; assay type: cell-based, B. longum; settings: addition of 0.1% lactose, among 0.05%, 1%, 2% and 2.75%, glucose added to 5.5% total sugar, base 8 h culture (FIG. 2)
Description: FIG. 2—Serpin mRNA level of B. longum NCC 2705 fermented in different growth medium after 8 h, 12 h and 16 h. Different proportions of glucose was replaced by lactose and fructose as shown in the y-axis and the total amount of sugar percentage was kept stable at 5.5%. The values were calculated based on B. longum NCC 2705 growth after 8 h in 5.5% glucose. Black bars represent significant induction. In order to optimize the effect of lactose on induction of BL NCC 2705 serpin, a dose response was performed. The fermentation was performed in a 10 L Biostar B Plus fermenter with MRSc medium, supplemented with 0.05% cysteine as base, and different concentration of lactose (0.05%, 0.1%, 1%, 2% and 2.75%) were added to the medium. Glucose was supplemented to the different recipes to reach a final total amount of 5.5% of total sugar. Serpin mRNA fold induction was calculated using the 8 h MRSc grown BL NCC 2705 culture as a base (FIG. 2).

elastases and proteinase = settings: cited from earlier work
transglutaminase 2 (TG2) = biological target: T1, transglutaminase 2 (TG2) (Homo sapiens, UniProt P21980); settings: in vitro; inhibits deamidation of the 33-mer gliadin peptide; cited from earlier work
T1 sequence (P21980 1-687): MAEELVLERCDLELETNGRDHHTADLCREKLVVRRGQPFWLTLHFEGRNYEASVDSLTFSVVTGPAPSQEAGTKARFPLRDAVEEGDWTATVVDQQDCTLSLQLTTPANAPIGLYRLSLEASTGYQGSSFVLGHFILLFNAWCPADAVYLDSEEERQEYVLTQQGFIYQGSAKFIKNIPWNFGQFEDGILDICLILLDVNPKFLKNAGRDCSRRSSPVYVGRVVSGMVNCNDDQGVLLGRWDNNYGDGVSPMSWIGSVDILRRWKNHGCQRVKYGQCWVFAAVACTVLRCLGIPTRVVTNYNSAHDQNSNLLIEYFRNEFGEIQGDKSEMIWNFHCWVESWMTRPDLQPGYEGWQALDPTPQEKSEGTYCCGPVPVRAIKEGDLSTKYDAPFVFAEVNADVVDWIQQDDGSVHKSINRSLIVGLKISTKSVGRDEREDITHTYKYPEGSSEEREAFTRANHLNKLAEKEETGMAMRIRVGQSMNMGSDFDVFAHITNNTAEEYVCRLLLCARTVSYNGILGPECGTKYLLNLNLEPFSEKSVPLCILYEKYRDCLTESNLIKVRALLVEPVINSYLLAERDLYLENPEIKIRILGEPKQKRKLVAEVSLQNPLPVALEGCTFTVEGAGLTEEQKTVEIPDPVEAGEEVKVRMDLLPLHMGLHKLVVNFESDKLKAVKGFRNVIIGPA

[2] = system: mouse model of gluten sensitivity; settings: elafin delivered by recombinant Lactococcus lactis; cited from earlier work

OC[C@H]1O[C@H](OC[C@H]2O[C@H](O[C@]3(CO)O[C@H](CO)[C@@H](O)[C@@H]3O)[C@H](O)[C@@H](O)[C@@H]2O)[C@H](O)[C@@H](O)[C@H]1O [raffinose, Raffinose]
serpin mRNA levels of B. longum NCC 2705 [1]: increase

OC[C@H]1O[C@@H](O[C@H]2[C@H](O)[C@@H](O)C(O)O[C@@H]2CO)[C@H](O)[C@@H](O)[C@H]1O (stereo partly shown) [lactose, Lactose]
serpin mRNA levels of B. longum NCC 2705 [1]: increase | serpin mRNA level at end of fermentation (16 h) (BL NCC 2705 serpin): highest

elafin: human serine protease inhibitor (AQEPVKGPVSTKPGSCPIILIRCAMLNPPNRCLKDTDCPGIKKCCEGSCGMACFVPQ; ends and bridges not checked; cysteine pairing not given here; UniProt P19957 61-117, looked up)
inhibitory capacity against various forms of elastases and proteinase (elastases and proteinase): potent inhibitory capacity | inhibition of transglutaminase 2 (TG2) (transglutaminase 2 (TG2)): moderately inhibits | gluten-induced pathology and intestine inflammation [2]: reduce gluten-induced pathology and normalise intestine inflammation

O=C(CO)[C@@H](O)[C@H](O)[C@H](O)CO [fructose, Fructose]
serpin mRNA levels of B. longum NCC 2705 [1]: increase
